Test results: patent publication US20250114487A1, “COMBINATION TREATMENT OF TUMORS” (The University of Chicago, priority 2023, published 2025)
Like-named read-outs stand apart in the source and are kept apart here.

Columns and labels:
[1] = tested on: QGP1.SSTR2 cells; experiment: Additional clonogenic assays, QGP1.SSTR2 cells; assay type: cell-based; settings: single agent (5.6 μCi Lu-177 DOTA-TATE or fulvestrant) compared to untreated cells
Description: Additional clonogenic assays and in-vivo experiments were conducted using Lu-177 DOTA-TATE in combination with Fulvestrant. […] Results are quantified in FIG. 12B. Treatment with Lu-177-DOTA-TATE alone decreased the number of colonies compared to untreated cells and cells treated with fulvestrant alone. Treatment with fulvestrant alone decreased the number of colonies compared to untreated cells.

[2] = tested on: QGP1.SSTR2 mice; experiment: In vivo PRRT sensitization, xenograft mice (QGP1.SSTR2)
Description: In vivo studies were conducted in mice. […] Tumor volume and survival was assessed up to 100 days post injection.

[3] = tested on: QGP1.SSTR2 cells; settings: 5.6 μCi dose of Lu-177 DOTA-TATE, alone or with 1 uM ATRA or 100 nM Fulvestrant
Description: For in vitro studies, QGP1 cells (pancreatic NET cells) were engineered to express luciferase (QGP1.luc) or to express luciferase and overexpress the somatostatin receptor 2 (SSTR2) (QGP1.SSTR2.luc). Cells were treated with PRRT alone, or PRRT in combination with estrogen receptor inhibition or all-trans-retinoic acid (ATRA).

[4] = tested on: QGP1.SSTR2 cells or QGP1 cells not expressing SSTR2
Description: Cells were treated with PRRT alone, or PRRT in combination with estrogen receptor inhibition or all-trans-retinoic acid (ATRA).

[5] = tested on: ESR1, Rad51, BRCA1, BRCA2 mRNA; experiment: qPCR of mRNA expression of DNA repair factors in QGP-1 cells; assay type: cell-based; settings: QGP-1 cells treated with Fulvestrant for 36 hours or 72 hours
Description: For in vitro experiments, various neuroendocrine tumor (NET) cell lines were used from different primary tumor origins. Specifically, pancreatic cells (QGP-1), small bowel cells (GOT-1), and lung cells (NCI-H727) were used. Cells were supplemented with estrogen (E2)-free or E2-supplemented media to determine the effects of E2 on cell proliferation and DNA repair factors. […] Knockdown of ESR1 was achieved using 30 uM siRNA. qPCR was performed to verify knockdown by quantifying ESR1 mRNA levels.
QGP-1 cells were growth in media with standard fetal bovine serum (WT), E2-free media for 7 days, or E-2 free media for 2 days followed by growth in E2 media containing 1 uM E2 additive for 24 hours. mRNA expression of DNA repair factors was evaluated by qPCR.

[6] = tested on: QGP-1 cells; experiment: In vitro radiosensitization, QGP-1 cells; assay type: cell-based; settings: 3.5 days following 100 nM Fulvestrant + IR (4 Gy) vs IR alone
Source text: (§1) For in vitro experiments, various neuroendocrine tumor (NET) cell lines were used from different primary tumor origins. Specifically, pancreatic cells (QGP-1), small bowel cells (GOT-1), and lung cells (NCI-H727) were used. Cells were supplemented with estrogen (E2)-free or E2-supplemented media to determine the effects of E2 on cell proliferation and DNA repair factors. ESR1 was inhibited by si-RNA mediated knockdown of ESR1 or by administration of the selective estrogen receptor degrader Fulvestrant. Knockdown of ESR1 was achieved using […] siRNA. qPCR was performed to verify knockdown by quantifying ESR1 mRNA levels. For administration of Fulvestrant, 100 nm Fulvestrant was used.
(§2) Radiation (IR) was administered using a dose of 4 Gy using external beam radiation therapy (EBRT). Radiation was administered 24 hours following ESR1 inhibition.
(§3) Cells were treated with […] siRNA against ESR1 followed by irradiation (4 Gy dose), or treated with Fulvestrant followed by irradiation (4 Gy dose). […] Without wishing to be bound by theory, it is possible that estrogen inhibition radiosensitizes cells by decreasing expression of genes involved in DNA repair pathways. This was evaluated by measuring mRNA levels of DNA repair factors Rad51, BRCA1, and BRCA2 following treatment of QGP-1 cells with Fulvestrant for 36 hours or 72 hours.

[7] = tested on: GOT-1 cells; experiment: In vitro radiosensitization, GOT-1 cells; assay type: cell-based
Source text: as §1, §2, §3

[8] = tested on: QGP-1 cells; experiment: Cell counting after irradiation with Fulvestrant and PARPi Talazoparib, QGP-1 cells; assay type: cell-based; settings: fulvestrant in combination with irradiation vs fulvestrant alone, 3 days after irradiation
Source text: Total number of cells were counted 3 days after irradiation.

[9] = tested on: QGP-1 tumors; experiment: In vivo radiosensitization, mouse xenograft model with QGP-1 tumors; settings: for cumulative survival: IR (4 Gy) + 5 mg Fulvestrant subcutaneously compared to irradiation alone and Fulvestrant alone; for tumor volume size: compared to control groups
Description: For in vivo experiments, a mouse xenograft model created using QGP-1 cells was used.
as §2
Radiosensitization was subsequently evaluated in vivo using a mouse model harboring QGP-1 tumors. Four different treatment groups were used. One group was a control that received neither irradiation nor fulvestrant. The second group received fulvestrant alone (5 mg, subcutaneous). The third group received irradiation alone. The fourth group received irradiation and fulvestrant (5 mg. subcutaneous). Tumor volume and overall survival was evaluated. Tumor volume was evaluated at day 7, day 15, day 24, and day 35 post treatment. […] Control mice were euthanized between day 15 and day 24 due to deteriorating health. At day 24 and day 35, no control mice were surviving and as such results presented therein only show treatment with fulvestrant, treatment with irradiation, or treatment with fulvestrant and irradiation.

[10] = tested on: ER36 or ER56; experiment: Western blot of ERα isoform levels, NCI-H727 cells; assay type: cell-based; set-up: dose or concentration left out as unconfirmed; settings: fulvestrant
Description: (§4) Western blot analysis was conducted in various NET cell lines to investigate expression levels of various ERα isoforms. The breast cancer cell line MCF7 was used as a positive control. […] In contrast, the most common isoform of ERα, ER66 kDa, was not present in QGP1 cells, as compared to MCF7. Expression of ER36 was further verified in NCI-H727 cells (FIG. 8B). Expression of ER56 was further verified in NCI-H727 cells and BON1 cells (FIG. 8C). […] Without wishing to be bound by theory, it is possible that this lack of effect of fulvestrant is because ER36 and ER 56 lack the […] binding region to which fulvestrant binds. […] (FIG. 8E).

[11] = tested on: ER36 or ER56; experiment: Western blot of ERα isoform levels, QGP1 cells; assay type: cell-based; settings: 100 mM fulvestrant
Description: as §4

[12] = tested on: SSTR2; experiment: Western blot of SSTR2 levels, SSTR2 positive QGP1 cells; assay type: cell-based; settings: SSTR2 positive QGP1 cells treated with fulvestrant or fulvestrant and irradiation
[13] = tested on: QGP1 cells; experiment: QGP1 cell number after irradiation in the presence or absence of estrogen; assay type: cell-based; settings: 3.5 days after irradiation (4 Gy)
Description: Additional experiments were conducted to further evaluated the mechanism behind fulvestrant-induced radiosensitization. QGP1 cells were cultured in the presence or absence of estrogen and treated with fulvestrant, irradiation, or fulvestrant and irradiation. The number of cells were evaluated 3.5 days after irradiation (4 Gy). […] This is a strong indication that the effect of fulvestrant is off-target and not through the estrogen receptor pathway. RNA sequencing experiments were conducted to further evaluate the potential mechanism behind radiosensitization.

In the case of `C[C@@H](O)[C@H](NC(=O)[C@@H]1CSSC[C@H](NC(=O)[C@@H](Cc2ccccc2)NC(=O)CN2CCN(CC(=O)[O-])CCN(CC(=O)[O-])CCN(CC(=O)[O-])CC2)C(=O)N[C@@H](Cc2ccc(O)cc2)C(=O)N[C@H](Cc2c[nH]c3ccccc23)C(=O)N[C@@H](CCCCN)C(=O)N[C@@H]([C@@H](C)O)C(=O)N1)C(=O)O.[177Lu+3]` [Lu-177 DOTA-TATE, lutetium Lu-177 DOTA-TATE], the number of colonies [1] is reported as “decreased”, the “mice surviving at day 100” value ([2]; Lu-177-DOTA-TATE alone) is reported as “less than 25%” and the survival ([2]; compared to control mice and mice treated with fulvestrant) is reported as “significantly longer”. The tumor volume ([2]; day 7 and day 21 post injection, compared to control mice and mice treated with fulvestrant alone) was “significantly smaller”, the colony count [3] was “about 40 cells” and the cell count ([4]; 5.6 μCi Lu-177 DOTA-TATE alone, FIG. 10B) was “about 150”. For the same compound, the cell count ([4]; 14.6 μCi Lu-177 DOTA-TATE alone, FIG. 10C) was “less than 40”.

`C[C@]12CC[C@@H]3c4ccc(O)cc4C[C@@H](CCCCCCCCC[S+]([O-])CCCC(F)(F)C(F)(F)F)[C@H]3[C@@H]1CC[C@@H]2O` (some centres unmarked) [Fulvestrant] was tested, and the “mRNA levels of Rad51, BRCA1, BRCA2” value [5] was “lower”, the total cell growth [6] was “significant decrease” and the total cell growth ([7]; 3.5 days following 100 nM Fulvestrant + irradiation (4 Gy) vs irradiation alone) was “significant decrease”. The total cell ([7]; 5 days following 100 nM Fulvestrant + IR (4 Gy) vs IR alone) was “significant decrease”, the cell death [8] was “increases cell death” and the cumulative survival [9] was “significantly improved survival”. The cumulative survival ([9]; listed as Fulevestrant) was “significantly improved cumulative survival”, the “survival, up to” value ([9]; combination of irradiation (4 Gy) and fulvestrant (5 mg, subcutaneous)) was “up to 70 days” and the tumor volume ([9]; day 35 post treatment, irradiation and fulvestrant compared to irradiation alone) was “significant decrease”. The tumor volume size ([9]; fulvestrant alone (5 mg, subcutaneous)) was “decreased”, the “survival, until day” value ([9]; fulvestrant alone (5 mg, subcutaneous), untreated control not past day 18) was at most 28 days and the survival ([9]; fulvestrant alone vs untreated control mice) was “significantly longer survival”. The tumor volume size ([9]; irradiation plus fulvestrant (5 mg, subcutaneous)) was “decreased”, the “ER36 or ER56 levels” value [10] was “not found to influence” and the “ER36 or ER56 levels” value [11] was “not found to influence”. The SSTR2 levels [12] was “did not increase”, the “radiosensitization (number of cells)” value [13] was “radiosensitizes cells regardless of whether estrogen was present or not present” and the number of colonies [1] was “decreased”. For the same compound, the survival ([2]; compared to control mice) was “did not show significant differences”.
